Where a name gives a salt, the structure may show the parent alone.
Columns and labels:
[1] = target: T1, TNKS2 (Homo sapiens, UniProt Q9H2K2); experiment: TNKS2 Assay B (auto-parsylation, [3H]-NAD+ SPA); assay type: biochemical; settings: 6 nM TNKS2, auto-parsylation, over night at room temperature
T1 construct: purchased BPS Bioscience, San Diego, USA 80572 (TNKS2 Histone Ribosylation Assay Kit)
T1 sequence (Q9H2K2 1-1166): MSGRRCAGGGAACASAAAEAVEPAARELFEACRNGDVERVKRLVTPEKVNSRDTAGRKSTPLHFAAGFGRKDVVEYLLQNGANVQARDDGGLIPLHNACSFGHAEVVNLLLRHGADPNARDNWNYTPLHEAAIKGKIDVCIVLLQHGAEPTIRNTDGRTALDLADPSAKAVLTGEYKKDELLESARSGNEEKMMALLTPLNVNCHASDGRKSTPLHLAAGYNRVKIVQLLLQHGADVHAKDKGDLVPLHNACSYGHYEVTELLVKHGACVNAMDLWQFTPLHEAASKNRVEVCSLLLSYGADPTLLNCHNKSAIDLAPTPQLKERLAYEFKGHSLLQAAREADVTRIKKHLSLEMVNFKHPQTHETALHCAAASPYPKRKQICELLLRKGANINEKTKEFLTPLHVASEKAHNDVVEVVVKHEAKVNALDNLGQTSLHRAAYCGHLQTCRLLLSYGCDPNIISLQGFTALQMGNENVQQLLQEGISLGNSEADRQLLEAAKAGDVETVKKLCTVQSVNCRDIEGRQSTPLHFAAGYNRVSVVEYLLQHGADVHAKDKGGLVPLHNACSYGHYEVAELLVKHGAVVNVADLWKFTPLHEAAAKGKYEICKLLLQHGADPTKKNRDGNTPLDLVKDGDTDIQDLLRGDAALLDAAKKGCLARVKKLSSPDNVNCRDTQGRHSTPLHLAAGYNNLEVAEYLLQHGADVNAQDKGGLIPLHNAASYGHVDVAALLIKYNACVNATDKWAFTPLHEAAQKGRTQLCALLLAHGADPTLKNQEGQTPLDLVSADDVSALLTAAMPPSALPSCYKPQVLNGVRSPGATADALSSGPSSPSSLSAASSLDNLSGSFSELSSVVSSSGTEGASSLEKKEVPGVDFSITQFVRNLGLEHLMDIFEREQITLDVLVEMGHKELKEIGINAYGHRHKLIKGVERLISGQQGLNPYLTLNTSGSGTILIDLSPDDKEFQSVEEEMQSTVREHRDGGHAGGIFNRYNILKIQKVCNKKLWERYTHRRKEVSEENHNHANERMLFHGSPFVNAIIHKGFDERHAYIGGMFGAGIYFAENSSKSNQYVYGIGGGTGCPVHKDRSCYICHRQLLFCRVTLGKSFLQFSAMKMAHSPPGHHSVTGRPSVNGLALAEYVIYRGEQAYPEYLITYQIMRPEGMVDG

[2] = tested on: wildtype Wnt signaling cascade; experiment: HEK293 TOP assay (Super TopFlash luciferase reporter, Wnt-3a stimulated); assay type: cell-based; settings: Homo sapiens, HEK293, 16 h, HEK293 TOP reporter cells, Wnt3a at EC50, 16 hours
Method in brief: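 HEK293 cells stably carrying Super TopFlash (TOP) run in parallel with FOP cells, 10000/well plated 24 h ahead, stimulated with recombinant human Wnt-3a. Compounds tested 50 μM to 15 nM in 3.16-fold steps in CAFTY buffer pH 7.4 with 2 mM Ca^2+ and 0.01% BSA; luciferase read-out.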

| IC50 [1] | IC50 [2] | Structure (SMILES) |
| --- | --- | --- |
| 74 nM | 270 nM | Cc1cc(C)n2ncc(C(=O)N[C@H]3CC[C@@]4(CCN(c5ccc(F)cc5)C4=O)CC3)c2n1 [Example 211, N-[(trans)-2-(4-fluorophenyl)-1-oxo-2-azaspiro[4.5]dec-8-yl]-5,7-di methyl pyrazolo[1,5-a]pyrimidine-3-carboxamide] |
| 290 nM | 88 nM | CNC(=O)c1[nH]cnc1C(=O)N[C@H]1CC[C@@]2(CCN(c3ccc(F)cc3)C2=O)CC1 [Example 212, N^4-[(trans)-2-(4-fluorophenyl)-1-oxo-2-azaspiro[4.5]dec-8-yl]-N^5-methyl-1H-imidazole-4,5-dicarboxamide] |
| 220 nM | 140 nM | CCNC(=O)c1[nH]cnc1C(=O)N[C@H]1CC[C@@]2(CCN(c3ccc(F)cc3)C2=O)CC1 [Example 213, N^5-ethyl-N^4-[(trans)-2-(4-fluorophenyl)-1-oxo-2-azaspiro[4.5]dec-8-yl]-1H-imidazole-4,5-dicarboxamide] |
| 5.3 nM | 16 nM | O=C(N[C@H]1CC[C@@]2(CCN(c3ccc(F)cc3Cl)C2=O)CC1)c1cnn2cc(CCO)cnc12 [Example 214, N-[(trans)-2-(2-chloro-4-fluorophenyl)-1-oxo-2-azaspiro[4.5]dec-8-yl]-6-(2-hydroxyethyl)pyrazolo[1,5-a]pyrimidine-3-carboxamide] |
| 2.2 nM | 5.5 nM | CNc1ccn2ncc(C(=O)N[C@H]3CC[C@@]4(CCN(c5ccc(F)cc5Cl)C4=O)CC3)c2n1 [Example 215, N-[(trans)-2-(2-chloro-4-fluorophenyl)-1-oxo-2-azaspiro[4.5]dec-8-yl]-5-(methylamino)pyrazolo[1,5-a]pyrimidine-3-carboxamide] |
| 340 nM | 71 nM | Cc1nn2cccnc2c1C(=O)N[C@H]1CC[C@@]2(CCN(c3ccc(F)cc3Cl)C2=O)CC1 [Example 216, N-[(trans)-2-(2-chloro-4-fluorophenyl)-1-oxo-2-azaspiro[4.5]dec-8-yl]-2-methylpyrazolo[1,5-a]pyrimidine-3-carboxamide] |
| 1.7 nM | 3.7 nM | CN(C)c1ccn2ncc(C(=O)N[C@H]3CC[C@@]4(CCN(c5ccc(F)cc5Cl)C4=O)CC3)c2n1 [Example 217, N-[(trans)-2-(2-chloro-4-fluorophenyl)-1-oxo-2-azaspiro[4.5]dec-8-yl]-5-(dimethylamino)pyrazolo[1,5-a]pyrimidine-3-carboxamide] |
| 4.8 nM | 16 nM | COc1ccn2ncc(C(=O)N[C@H]3CC[C@@]4(CCN(c5ccc(F)cc5Cl)C4=O)CC3)c2n1 [Example 218, N-[(trans)-2-(2-chloro-4-fluorophenyl)-1-oxo-2-azaspiro[4.5]dec-8-yl]-5-methoxypyrazolo[1,5-a]pyrimidine-3-carboxamide] |
| 3.8 nM | 1.5 nM | Cc1ccn2ncc(C(=O)N[C@H]3CC[C@@]4(CCN(c5ccc(F)cc5Cl)C4=O)CC3)c2n1 [Example 221, N-[(trans)-2-(2-chloro-4-fluorophenyl)-1-oxo-2-azaspiro[4.5]dec-8-yl]-5-methylpyrazolo[1,5-a]pyrimidine-3-carboxamide] |
| 6.5 nM | 2.1 nM | Cc1ccnc2c(C(=O)N[C@H]3CC[C@@]4(CCN(c5ccc(F)cc5Cl)C4=O)CC3)cnn12 [Example 222, N-[(trans)-2-(2-chloro-4-fluorophenyl)-1-oxo-2-azaspiro[4.5]dec-8-yl]-7-methylpyrazolo[1,5-a]pyrimidine-3-carboxamide] |
| 11 nM | 0.83 nM | Cc1cc(C(F)F)n2ncc(C(=O)N[C@H]3CC[C@@]4(CCN(c5ccc(F)cc5Cl)C4=O)CC3)c2n1 [Example 224, N-[(trans)-2-(2-chloro-4-fluorophenyl)-1-oxo-2-azaspiro[4.5]dec-8-yl]-7-(difluoromethyl)-5-methylpyrazolo[1,5-a]pyrimidine-3-carboxamide] |
| 2.5 nM | 59 nM | CC(C)(C)OC(=O)N1CCN(c2ccn3ncc(C(=O)N[C@H]4CC[C@@]5(CCN(c6ccc(F)cc6Cl)C5=O)CC4)c3n2)CC1 [Example 225, tert-butyl 4-(3-{[(trans)-2-(2-chloro-4-fluorophenyl)-1-oxo-2-azaspiro[4.5]dec-8-yl]carbamoyl}pyrazolo[1,5-a]pyrimidin-5-yl)piperazine-1-carboxylate] |
| 3.3 nM | 32 nM | O=C(N[C@H]1CC[C@@]2(CCN(c3ccc(F)cc3Cl)C2=O)CC1)c1cnn2ccc(N3CCNCC3)nc12 [Example 226, N-[(trans)-2-(2-chloro-4-fluorophenyl)-1-oxo-2-azaspiro[4.5]dec-8-yl]-5-(piperazin-1-yl)pyrazolo[1,5-a]pyrimidine-3-carboxamide hydrochloric acid salt] |
| 3.3 nM | 6.4 nM | O=C(N[C@H]1CC[C@@]2(CCN(c3ccc(F)cc3Cl)C2=O)CC1)c1cnn2ccc(N3CCCC3)nc12 [Example 232, N-[(trans)-2-(2-chloro-4-fluorophenyl)-1-oxo-2-azaspiro[4.5]dec-8-yl]-5-(pyrrolidin-1-yl)pyrazolo[1,5-a]pyrimidine-3-carboxamide] |
| 25 nM | 9 nM | O=C(N[C@H]1CC[C@@]2(CCN(c3ccc(F)cc3Cl)C2=O)CC1)c1cnn2c(C(F)(F)F)ccnc12 [Example 233, N-[(trans)-2-(2-chloro-4-fluorophenyl)-1-oxo-2-azaspiro[4.5]dec-8-yl]-7-(trifluoromethyl)pyrazolo[1,5-a]pyrimidine-3-carboxamide] |
| 12 nM | 2.3 nM | O=C(N[C@H]1CC[C@@]2(CCN(c3ccccc3Cl)C2=O)CC1)c1cnn2cccnc12 [Example 256, N-[(trans)-2-(2-chlorophenyl)-1-oxo-2-azaspiro[4.5]dec-8-yl]pyrazolo[1,5-a]pyrimidine-3-carboxamide] |
| 5.7 nM | 1.4 nM | Cc1cc(C)n2ncc(C(=O)N[C@H]3CC[C@@]4(CCN(c5ccccc5Cl)C4=O)CC3)c2n1 [Example 257, N-[(trans)-2-(2-chlorophenyl)-1-oxo-2-azaspiro[4.5]dec-8-yl]-5,7-dimethylpyrazolo[1,5-a]pyrimidine-3-carboxamide] |
| 6.3 nM | 2.3 nM | CCNC(=O)c1nc[nH]c1C(=O)N[C@H]1CC[C@@]2(CCN(c3ccccc3Cl)C2=O)CC1 [Example 258, N^5-[(trans)-2-(2-chlorophenyl)-1-oxo-2-azaspiro[4.5]dec-8-yl]-N^4-ethyl-1H-imidazole-4,5-dicarboxamide] |
| 6.3 nM | 8.6 nM | COCCNC(=O)c1nc[nH]c1C(=O)N[C@H]1CC[C@@]2(CCN(c3ccccc3Cl)C2=O)CC1 [Example 259, N^5-[(trans)-2-(2-chlorophenyl)-1-oxo-2-azaspiro[4.5]dec-8-yl]-N^4-(2-methoxyethyl)-1H-imidazole-4,5-dicarboxamide] |
| 1.7 nM | 2.8 nM | CC1CCN(CCNC(=O)c2nc[nH]c2C(=O)N[C@H]2CC[C@@]3(CCN(c4ccccc4Cl)C3=O)CC2)CC1 [Example 260, N^5-[(trans)-2-(2-chlorophenyl)-1-oxo-2-azaspiro[4.5]dec-8-yl]-N^4-[2-(4-methylpiperidin-1-yl)ethyl]-1H-imidazole-4,5-dicarboxamide] |
| 4 nM | 2.3 nM | CNC(=O)c1nc[nH]c1C(=O)N[C@H]1CC[C@@]2(CCN(c3ccccc3Cl)C2=O)CC1 [Example 264, N^5-[(trans)-2-(2-chlorophenyl)-1-oxo-2-azaspiro[4.5]dec-8-yl]-N^4-methyl-1H-imidazole-4,5-dicarboxamide] |
| 4.8 nM | 3.5 nM | Cc1cc(N2CC[C@]3(CC[C@@H](NC(=O)c4cnc5cccnn45)CC3)C2=O)c(Cl)cc1F [Example 265, N-[(trans)-2-(2-chloro-4-fluoro-5-methylphenyl)-1-oxo-2-azaspiro[4.5]dec-8-yl]imidazo[1,2-b]pyridazine-3-carboxamide] |

Source: patent US20180148418A1, “AMIDO-SUBSTITUTED CYCLOHEXANE DERIVATIVES” (Bayer Pharma Aktiengesellschaft, priority 2015, published 2018)
